Experimental findings from ChEMBL document CHEMBL1201862, “PubChem BioAssay data set” (2004) are described below.

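Results reflect a 48-hour exposure of cells in 96-well plates to compound at five concentrations. The concentration for 50% growth inhibition is given as GI50.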 Active and inactive are the calls of the source. Rule as the data show it: active = GI50 up to about 1.1 µM and inactive = higher.

Test systems include IGROV-1; MOLT-4; 786-0; NCI-H226; CAKI-1; SF-268; HOP-92; HCT-15; KM12; OVCAR-3; NCI-H23; OVCAR-4; SW-620; SNB-19; HCT-116.
Holding throughout (assay): inhibition of tumour cell growth, NCI panel, 48 h

Consider `COC(=O)C(=O)C(C(=O)C(=O)Nc1cccc(C(C)=O)c1)c1nc2ccccc2nc1O` (stereo unspecified), for which the GI50 in the assay on IGROV-1, with MOLT-4, with 786-0, with NCI-H226, in the assay on CAKI-1 and in the assay on SF-268 was > 100 µM (inactive) throughout. Also, the GI50 was > 100 µM (inactive) in the assay on HOP-92; over 100 µM with HCT-15; > 100 µM (inactive) with KM12; > 100 µM (inactive) in the assay on OVCAR-3; > 100 µM (inactive) in the assay with NCI-H23; > 100 µM (inactive) in the assay with OVCAR-4. Besides, the GI50 in the assay with SW-620 and with SNB-19 was > 100 µM (inactive) in each case.

On to `CC(=O)NC1=C(C)C(=O)c2c(nc3n2CCC3OC(=O)CCl)C1=O` (stereo unspecified), for which the GI50 in the assay with IGROV-1 was 11.8 µM (inactive); with HCT-116 it was 2.3 µM (inactive); in the assay with MOLT-4, 1.69 µM (inactive); in the assay on 786-0, 9.48 µM (inactive); with NCI-H226 it was 2.52 µM (inactive); in the assay with CAKI-1, 20.9 µM (inactive). In addition, the GI50 with SF-268 is 10.3 µM (inactive); in the assay on HOP-92, 2.33 µM (inactive); with KM12, 15.6 µM (inactive); in the assay on OVCAR-3 it was 1.41 µM (inactive); in the assay with NCI-H23, 11.7 µM (inactive); in the assay on OVCAR-4, 1.52 µM (inactive). The values for the GI50 in the assay with SW-620 and with SNB-19 were 8.99 µM (inactive) and 16.6 µM (inactive), respectively.

Take `O=C1CSc2cc([N+](=O)[O-])ccc2N1`: the GI50 in the assay with IGROV-1, in the assay with HCT-116, with MOLT-4, in the assay with 786-0, in the assay with NCI-H226 and in the assay on CAKI-1 was > 100 µM (inactive) in each case. Further, the GI50 in the assay with SF-268 was > 100 µM (inactive); with HCT-15 it was over 100 µM; with KM12, > 100 µM (inactive); in the assay with OVCAR-3 it was > 100 µM (inactive); in the assay on NCI-H23, > 100 µM (inactive); in the assay on OVCAR-4, > 100 µM (inactive). For the same molecule, the GI50 in the assay with SW-620 and in the assay on SNB-19 was > 100 µM (inactive) throughout.

Consider `Cc1ccc(S(=O)(=O)N/N=C/c2oc(-c3ccccc3Cl)c(-c3ccccc3Cl)c2[N+](=O)[O-])cc1`, for which the GI50 in the assay with IGROV-1 is 24.9 µM (inactive); in the assay with HCT-116 it was 6.37 µM (inactive); in the assay with MOLT-4, 11.5 µM (inactive); in the assay with 786-0, 19.5 µM (inactive); in the assay on CAKI-1, 36.9 µM (inactive); in the assay with SF-268, 36.1 µM (inactive). Further, the GI50 in the assay on HOP-92 was 28.5 µM (inactive); with KM12, > 100 µM (inactive); in the assay with OVCAR-3 it was > 100 µM (inactive); with NCI-H23, 13.4 µM (inactive); in the assay with OVCAR-4, 30 µM (inactive); in the assay with SW-620, 21 µM (inactive). For the same molecule, in the assay with SNB-19, the GI50 was 15.6 µM (inactive).

Turning to `CCCCCCC1=NOC(C(c2cc[nH]c2)N(C)[C@H](C(=O)OC)C(C)C)C1` (stereo partly specified), the GI50 was 65.8 µM (inactive) in the assay with IGROV-1; 34.4 µM (inactive) in the assay with HCT-116; 19.4 µM (inactive) in the assay with MOLT-4; 58.9 µM (inactive) in the assay with 786-0; 51.1 µM (inactive) with NCI-H226; > 100 µM (inactive) with CAKI-1. Moreover, the GI50 in the assay on SF-268 is > 100 µM (inactive); with HOP-92, 51.4 µM (inactive); in the assay on KM12 it was 21.9 µM (inactive); in the assay on OVCAR-3, 25.4 µM (inactive); in the assay with NCI-H23, 47.8 µM (inactive); in the assay with OVCAR-4, 39 µM (inactive). The GI50 in the assay on SW-620 was 26.6 µM (inactive); in the assay on SNB-19 it was 65.9 µM (inactive).

Consider `COC(=O)c1cccn1C(=O)n1cccc1`, for which the GI50 with IGROV-1, in the assay on HCT-116, in the assay on MOLT-4, in the assay with 786-0, in the assay with NCI-H226 and with CAKI-1 was > 100 µM (inactive) throughout. The GI50 in the assay on SF-268, in the assay on HOP-92, in the assay on KM12, in the assay with OVCAR-3, in the assay with NCI-H23 and with OVCAR-4 was > 100 µM (inactive) in each case. Besides, the GI50 with SW-620 and in the assay with SNB-19 was > 100 µM (inactive) each time.

Take `CCN(CC)CC(=O)NC1c2ccccc2Oc2c(C)cccc21` (stereo unspecified): the GI50 in the assay on IGROV-1 was > 100 µM (inactive); with HCT-116, 95.5 µM (inactive); in the assay with MOLT-4, 62.7 µM (inactive); with 786-0 it was > 100 µM (inactive); in the assay with NCI-H226, > 100 µM (inactive); with SF-268, > 100 µM (inactive). The GI50 in the assay on HCT-15 is over 100 µM; in the assay with NCI-H23, > 100 µM (inactive); in the assay with OVCAR-4, > 100 µM (inactive); in the assay on SW-620 it was > 100 µM (inactive); in the assay on SNB-19, > 100 µM (inactive).

For the molecule `CC(=O)C1CCN(c2ccccc2)C1` (stereo unspecified), the GI50 with IGROV-1, with HCT-116, with MOLT-4, in the assay on 786-0, in the assay on NCI-H226 and in the assay with CAKI-1 was > 100 µM (inactive) in each case. Further, the GI50 with SF-268, with HOP-92, in the assay with KM12, in the assay on OVCAR-3, in the assay on NCI-H23 and with OVCAR-4 was > 100 µM (inactive) throughout. The GI50 in the assay with SW-620 and in the assay with SNB-19 was > 100 µM (inactive) each time.

As for `O=CC1=CCC2c3[nH]c4ccccc4c3CCN2C1` (stereo unspecified), the GI50 with IGROV-1 is 125 µM (inactive); in the assay with HCT-116, 61.7 µM (inactive); in the assay on MOLT-4, 90.2 µM (inactive); in the assay with 786-0, 141 µM (inactive); in the assay with NCI-H226 it was 117 µM (inactive); in the assay on CAKI-1 it was > 396 µM (inactive). Further, the GI50 in the assay with SF-268 was 167 µM (inactive); with HOP-92 it was 111 µM (inactive); in the assay with HCT-15 it was 68.1 µM; with KM12 it was 73.1 µM (inactive); in the assay with OVCAR-3, 92.5 µM (inactive); in the assay with NCI-H23, 83 µM (inactive). For the same molecule, the GI50 in the assay with SW-620 is 122 µM (inactive); in the assay with SNB-19, 258 µM (inactive).

As to `O=C1C2C(C(=O)N1c1ccccc1)C1(c3ccccc3)OC2(c2ccccc2)c2ccccc21` (stereo unspecified), the GI50 with IGROV-1 was > 100 µM (inactive); with MOLT-4 it was > 100 µM (inactive); in the assay with 786-0, > 100 µM (inactive); with CAKI-1 it was > 100 µM (inactive); in the assay on SF-268, > 100 µM (inactive); in the assay with HOP-92, 1.93 µM (inactive). Further, the GI50 was over 100 µM with HCT-15; > 100 µM (inactive) in the assay on KM12; > 100 µM (inactive) with OVCAR-3; > 100 µM (inactive) with NCI-H23; > 100 µM (inactive) in the assay with OVCAR-4; > 100 µM (inactive) in the assay with SW-620. In addition, the GI50 in the assay with SNB-19 is > 100 µM (inactive).

Consider `CC#CC(=O)Nc1ccccc1CC(c1c[nH]c2ccccc12)c1c[nH]c2ccccc12`, for which the GI50 with IGROV-1 is 16.4 µM (inactive); with MOLT-4, 5.68 µM (inactive); with 786-0, 18.3 µM (inactive); in the assay with NCI-H226, 15.5 µM (inactive); in the assay with CAKI-1 it was 20.6 µM (inactive); with SF-268, 22.7 µM (inactive). The GI50 in the assay on HCT-15 was 14.3 µM; in the assay on KM12 it was 22.3 µM (inactive); in the assay with OVCAR-3 it was 18.9 µM (inactive); in the assay on NCI-H23, 18.8 µM (inactive); in the assay with SW-620 it was 16.2 µM (inactive); in the assay with SNB-19, 18.5 µM (inactive).

Regarding `COC(=O)C1CCC2(C)[C@H](CCC3O[C@]32C)[C@@]1(C)CC(=O)c1ccoc1` (stereo partly specified), the GI50 in the assay with IGROV-1 was 58.6 µM (inactive); in the assay with HCT-116, 65.6 µM (inactive); in the assay on MOLT-4, 28.3 µM (inactive); with 786-0, > 100 µM (inactive); in the assay on NCI-H226, > 100 µM (inactive); with CAKI-1 it was > 100 µM (inactive). Further, the GI50 was 48.4 µM (inactive) in the assay on SF-268; 81.1 µM in the assay with HCT-15; 42.2 µM (inactive) with KM12; > 100 µM (inactive) with OVCAR-3; 71 µM (inactive) in the assay with NCI-H23; > 100 µM (inactive) in the assay on OVCAR-4. For the same molecule, the GI50 is > 100 µM (inactive) in the assay with SW-620 and 33.9 µM (inactive) in the assay with SNB-19.

Take `COC(=O)CC(C(C(C)=O)C(=O)OCc1ccccc1)N1C(=O)OCC1c1ccccc1` (stereo unspecified): the GI50 is 50 µM (inactive) in the assay on IGROV-1; > 100 µM (inactive) in the assay with HCT-116; 45.9 µM (inactive) in the assay on MOLT-4; > 100 µM (inactive) with 786-0; 60.5 µM (inactive) with NCI-H226; > 100 µM (inactive) in the assay on SF-268. Moreover, the GI50 in the assay with HCT-15 is over 100 µM; in the assay with OVCAR-3, 87.9 µM (inactive); with NCI-H23, > 100 µM (inactive); with OVCAR-4 it was 71.3 µM (inactive); with SW-620, > 100 µM (inactive); in the assay with SNB-19, > 100 µM (inactive).

Take `COC(=O)C1CC(=O)O[C@H]1c1ccc(OC)c(OC)c1` (stereo partly specified): the GI50 in the assay on IGROV-1, in the assay on HCT-116, in the assay on MOLT-4, in the assay on 786-0, in the assay with NCI-H226 and in the assay on CAKI-1 was > 100 µM (inactive) each time. The GI50 was > 100 µM (inactive) with SF-268; > 100 µM (inactive) in the assay with HOP-92; over 100 µM in the assay with HCT-15; > 100 µM (inactive) in the assay on KM12; > 100 µM (inactive) in the assay on OVCAR-3; > 100 µM (inactive) with NCI-H23. In addition, the GI50 with OVCAR-4 and in the assay on SW-620 was > 100 µM (inactive) in each case.

As for `CC([C@H]1CCC2C3CCC4CC5(CC[C@]4(C)C3CC[C@@]21C)c1ccccc1C(=O)N5C)N(C)C` (stereo partly specified), the GI50 was 40.6 µM (inactive) in the assay with IGROV-1; 13.3 µM (inactive) with HCT-116; 19.2 µM (inactive) with MOLT-4; 13.9 µM (inactive) with 786-0; > 100 µM (inactive) in the assay on CAKI-1; > 100 µM (inactive) with SF-268. For the same molecule, the GI50 in the assay with HOP-92 is 50.5 µM (inactive); in the assay on HCT-15 it was 27.7 µM; in the assay with KM12, 74.8 µM (inactive); in the assay on OVCAR-3, > 100 µM (inactive); with NCI-H23, > 100 µM (inactive); with OVCAR-4, 68.1 µM (inactive). Moreover, the GI50 in the assay on SW-620 was 40.6 µM (inactive); with SNB-19 it was 42.3 µM (inactive).
